Measured values reported in patent publication US6737383B1, “Herbicidal oxadiazolidines” (priority 1999, dated 2004).

What was measured:
velvetleaf = experiment: Test B pre/postemergence velvetleaf; format: in vivo, Abutilon theophrasti
Summary of the method: (§1)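 Test chemicals in a non-phytotoxic solvent mixture with surfactant were sprayed preemergence onto planted seeds and postemergence onto plants 2 to 18 cm tall (1- to 4-leaf stage). After twelve to sixteen days in a greenhouse, injury was visually rated against untreated controls from 0 (no effect) to 10 (complete control).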

giant foxtail = experiment: Test B pre/postemergence giant foxtail; format: in vivo, Setaria faberii
Summary of the method: as §1

crabgrass = experiment: Test B pre/postemergence crabgrass; format: in vivo, Digitaria sanguinalis
Summary of the method: as §1

corn = experiment: Test B pre/postemergence corn; format: in vivo, Zea mays
Summary of the method: as §1

wheat = experiment: Test B pre/postemergence wheat; format: in vivo, Triticum aestivum
Summary of the method: as §1

surinam grass = experiment: Test B pre/postemergence surinam grass; format: in vivo, Brachiaria decumbens
Summary of the method: as §1

wild oat = experiment: Test B pre/postemergence wild oat; format: in vivo, Avena fatua
Summary of the method: as §1

duck salad = experiment: Test B flood test duck salad; format: in vivo, Heteranthera limosa
Summary of the method: (§2)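 Read-out is a visual response score from 0 (no effect) to 10 (complete control), assigned by comparison with untreated controls. Treatment was applied at the 2-leaf stage, and plants stayed in the greenhouse for twelve to sixteen days before scoring.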

morningglory = experiment: Test B pre/postemergence morningglory; format: in vivo, Ipomoea hederacea
Summary of the method: as §1

smallflower flatsedge = experiment: Test B flood test smallflower flatsedge; format: in vivo, Cyperus difformis
Summary of the method: as §2

rape = experiment: Test B pre/postemergence rape; format: in vivo, Brassica napus
Summary of the method: as §1

blackgrass = experiment: Test B pre/postemergence blackgrass; format: in vivo, Alopecurus myosuroides
Summary of the method: as §1

sugar beet = experiment: Test B pre/postemergence sugar beet; format: in vivo, Beta vulgaris
Summary of the method: as §1

soybean = experiment: Test B pre/postemergence soybean; format: in vivo, Glycine max
Summary of the method: as §1

purple nutsedge = experiment: Test B pre/postemergence purple nutsedge; format: in vivo, Cyperus rotundus
Summary of the method: as §1

cocklebur = experiment: Test B pre/postemergence cocklebur; format: in vivo, Xanthium strumarium
Summary of the method: as §1

rice = experiment: Test B flood test rice; format: in vivo, Oryza sativa
Summary of the method: as §2

pigweed = experiment: Test B pre/postemergence pigweed; format: in vivo, Amaranthus retroflexus
Summary of the method: as §1

bamyardgrass = experiment: Test B flood test barnyardgrass; format: in vivo, Echinochloa crus-galli
Summary of the method: as §2

bedstraw = experiment: Test B pre/postemergence bedstraw; format: in vivo, Galium aparine
Summary of the method: as §1

[1] = Postemergence, Rate 62 g/ha, scale 0 to 10, 0 is no effect, 10 is complete control
[2] = Postemergence, Rate 125 g/ha, scale of 0 to 10 where 0 is no effect and 10 is complete control
[3] = Preemergence, Rate 62 g/ha, scale of 0 to 10 where 0 is no effect and 10 is complete control
[4] = Preemergence, Rate 125 g/ha, scale of 0 to 10 where 0 is no effect and 10 is complete control
[5] = Preemergence, Rate 500 g/ha, scale of 0 to 10 where 0 is no effect and 10 is complete control
[6] = Rate 500 g/ha, Postemergence, scale 0 to 10, 0 is no effect, 10 is complete control
[7] = Postemergence, Rate 250 g/ha, scale of 0 to 10, 0 is no effect, 10 is complete control
[8] = Preemergence, Rate 250 g/ha, scale 0 to 10 (0 no effect, 10 complete control)
[9] = Rate 62 g/ha, flood test species, Pre-emergence, visual evaluation after twelve to sixteen days
[10] = Rate 125 g/ha, under heading Pre-emergence, flood test species, visual evaluation after twelve to sixteen days
[11] = Rate 250 g/ha, Pre-emergence (flood test species), scale 0 to 10, 0 is no effect, 10 is complete control
[12] = Rate 500 g/ha, Pre-emergence section of Table B, 0 to 10 scale (0 no effect, 10 complete control)

CC(C)N(C(=O)n1oc(=O)n(CCCC#N)c1=O)c1ccccc1 [Compound 674]
Plant response rating, Velvetleaf (velvetleaf; [1]): 4 | Velvetleaf plant response rating (velvetleaf; [2]): 6 | Velvetleaf plant response rating (velvetleaf; [3]): 6 | Plant response rating, Velvetleaf (velvetleaf; [4]): 7 | Plant response rating, Velvetleaf (velvetleaf; [5]): 10 | Velvetleaf plant response rating (velvetleaf; [6]): 8 | Plant response rating, Giant foxtail (giant foxtail; [1]): 7 | Giant foxtail plant response rating (giant foxtail; [2]): 9 | Giant foxtail plant response rating (giant foxtail; [7]): 9 | Giant foxtail plant response rating (giant foxtail; [3]): 6 | Plant response rating, Giant foxtail (giant foxtail; [4]): 9 | Plant response rating, Giant foxtail (giant foxtail; [5]): 10 | Giant foxtail plant response rating (giant foxtail; [6]): 9 | Plant response rating, Crabgrass (crabgrass; [1]): 6 | Crabgrass plant response rating (crabgrass; [2]): 8 | Crabgrass plant response rating (crabgrass; [7]): 9 | Crabgrass plant response rating (crabgrass; [3]): 8 | Plant response rating, Crabgrass (crabgrass; [4]): 9 | Plant response rating, Crabgrass (crabgrass; [8]): 9 | Plant response rating, Crabgrass (crabgrass; [5]): 9 | Crabgrass plant response rating (crabgrass; [6]): 9 | Plant response rating, Corn (corn; [1]): 0 | Corn plant response rating (corn; [2]): 3 | Corn plant response rating (corn; [7]): 6 | Corn plant response rating (corn; [3]): 2 | Plant response rating, Corn (corn; [4]): 3 | Plant response rating, Corn (corn; [8]): 5 | Plant response rating, Corn (corn; [5]): 8 | Corn plant response rating (corn; [6]): 7 | Plant response rating, Wheat (wheat; [1]): 0 | Wheat plant response rating (wheat; [2]): 0 | Wheat plant response rating (wheat; [3]): 0 | Plant response rating, Wheat (wheat; [4]): 5 | Plant response rating, Wheat (wheat; [5]): 8 | Wheat plant response rating (wheat; [6]): 7 | Plant response rating, B. signalgrass (surinam grass; [1]): 3 | B. signalgrass plant response rating (surinam grass; [2]): 5 | B. signalgrass plant response rating (surinam grass; [7]): 8 | B. signalgrass plant response rating (surinam grass; [3]): 6 | Plant response rating, B. signalgrass (surinam grass; [4]): 7 | Plant response rating, B. signalgrass (surinam grass; [8]): 8 | Plant response rating, B. signalgrass (surinam grass; [5]): 8 | B. signalgrass plant response rating (surinam grass; [6]): 8 | Plant response rating, Wild oats (wild oat; [1]): 0 | Wild oats plant response rating (wild oat; [2]): 0 | Wild oats plant response rating (wild oat; [3]): 1 | Plant response rating, Wild oats (wild oat; [4]): 3 | Plant response rating, Wild oats (wild oat; [5]): 10 | Wild oats plant response rating (wild oat; [6]): 3 | Plant response rating, Ducksalad (0 to 10 scale, 0 is no effect, 10 is complete control) (duck salad; [9]): 0 | Ducksalad plant response rating (0 to 10 scale, 0 is no effect, 10 is complete control) (duck salad; [10]): 0 | Ducksalad plant response rating (duck salad; [11]): 0 | Ducksalad plant response rating (duck salad; [12]): 0 | Plant response rating, Morningglory (morningglory; [1]): 2 | Morningglory plant response rating (morningglory; [2]): 2 | Morningglory plant response rating (morningglory; [7]): 10 | Morningglory plant response rating (morningglory; [3]): 0 | Plant response rating, Morningglory (morningglory; [4]): 0 | Plant response rating, Morningglory (morningglory; [5]): 7 | Plant response rating, S. Flatsedge (0 to 10 scale, 0 is no effect, 10 is complete control) (smallflower flatsedge; [9]): 0 | S. Flatsedge plant response rating (0 to 10 scale, 0 is no effect, 10 is complete control) (smallflower flatsedge; [10]): 0 | S. Flatsedge plant response rating (smallflower flatsedge; [11]): 0 | S. Flatsedge plant response rating (smallflower flatsedge; [12]): 0 | Plant response rating, Rape (rape; [1]): 0 | Rape plant response rating (rape; [2]): 0 | Rape plant response rating (rape; [3]): 0 | Plant response rating, Rape (rape; [4]): 3 | Plant response rating, Rape (rape; [5]): 8 | Rape plant response rating (rape; [6]): 5 | Plant response rating, Blackgrass (blackgrass; [1]): 4 | Blackgrass plant response rating (blackgrass; [2]): 7 | Blackgrass plant response rating (blackgrass; [7]): 8 | Blackgrass plant response rating (blackgrass; [3]): 6 | Plant response rating, Blackgrass (blackgrass; [4]): 8 | Plant response rating, Blackgrass (blackgrass; [8]): 9 | Plant response rating, Blackgrass (blackgrass; [5]): 9 | Blackgrass plant response rating (blackgrass; [6]): 9 | Plant response rating, Sugarbeets (sugar beet; [1]): 0 | Sugarbeets plant response rating (sugar beet; [2]): 0 | Sugarbeets plant response rating (sugar beet; [3]): 2 | Plant response rating, Sugarbeets (sugar beet; [4]): 5 | Plant response rating, Sugarbeets (sugar beet; [5]): 9 | Sugarbeets plant response rating (sugar beet; [6]): 5 | Plant response rating, Soybean (soybean; [1]): 2 | Soybean plant response rating (soybean; [2]): 3 | Soybean plant response rating (soybean; [3]): 3 | Plant response rating, Soybean (soybean; [4]): 3 | Plant response rating, Soybean (soybean; [5]): 7 | Soybean plant response rating (soybean; [6]): 7 | Plant response rating, Nutsedge (purple nutsedge; [1]): 0 | Nutsedge plant response rating (purple nutsedge; [2]): 3 | Nutsedge plant response rating (purple nutsedge; [3]): 0 | Plant response rating, Nutsedge (purple nutsedge; [4]): 0 | Plant response rating, Nutsedge (purple nutsedge; [5]): 6 | Plant response rating, Cocklebur (cocklebur; [1]): 0 | Cocklebur plant response rating (cocklebur; [2]): 0 | Cocklebur plant response rating (cocklebur; [7]): 2 | Cocklebur plant response rating (cocklebur; [3]): 0 | Plant response rating, Cocklebur (cocklebur; [4]): 0 | Plant response rating, Cocklebur (cocklebur; [8]): 0 | Plant response rating, Cocklebur (cocklebur; [5]): 0 | Cocklebur plant response rating (cocklebur; [6]): 4 | Plant response rating, Rice (0 to 10 scale, 0 is no effect, 10 is complete control) (rice; [9]): 0 | Rice plant response rating (0 to 10 scale, 0 is no effect, 10 is complete control) (rice; [10]): 0 | Rice plant response rating (rice; [11]): 0 | Rice plant response rating (rice; [12]): 0 | Plant response rating, Redroot pigweed (pigweed; [1]): 0 | Redroot pigweed plant response rating (pigweed; [2]): 3 | Redroot pigweed plant response rating (pigweed; [3]): 7 | Plant response rating, Redroot pigweed (pigweed; [4]): 7 | Plant response rating, Redroot pigweed (pigweed; [5]): 10 | Redroot pigweed plant response rating (pigweed; [6]): 7 | Plant response rating, Barnyardgrass (0 to 10 scale, 0 is no effect, 10 is complete control) (bamyardgrass; [9]): 0 | Barnyardgrass plant response rating (0 to 10 scale, 0 is no effect, 10 is complete control) (bamyardgrass; [10]): 0 | Barnyardgrass plant response rating (bamyardgrass; [11]): 0 | Barnyardgrass plant response rating (bamyardgrass; [12]): 0 | Bedstraw plant response rating (bedstraw; [7]): 0 | Bedstraw plant response rating (bedstraw; [3]): 0 | Plant response rating, Bedstraw (bedstraw; [4]): 0 | Plant response rating, Bedstraw (bedstraw; [5]): 0
